The target of test [1] is T1, 3CAM hamster α1b-adrenoceptor/GFP fusion construct (Mesocricetus auratus, UniProt P18841, A293L/K290H/R288K).
T1 construct: expressed in transfected cells
T1 sequence (P18841 1-515 R288K/K290H/A293L): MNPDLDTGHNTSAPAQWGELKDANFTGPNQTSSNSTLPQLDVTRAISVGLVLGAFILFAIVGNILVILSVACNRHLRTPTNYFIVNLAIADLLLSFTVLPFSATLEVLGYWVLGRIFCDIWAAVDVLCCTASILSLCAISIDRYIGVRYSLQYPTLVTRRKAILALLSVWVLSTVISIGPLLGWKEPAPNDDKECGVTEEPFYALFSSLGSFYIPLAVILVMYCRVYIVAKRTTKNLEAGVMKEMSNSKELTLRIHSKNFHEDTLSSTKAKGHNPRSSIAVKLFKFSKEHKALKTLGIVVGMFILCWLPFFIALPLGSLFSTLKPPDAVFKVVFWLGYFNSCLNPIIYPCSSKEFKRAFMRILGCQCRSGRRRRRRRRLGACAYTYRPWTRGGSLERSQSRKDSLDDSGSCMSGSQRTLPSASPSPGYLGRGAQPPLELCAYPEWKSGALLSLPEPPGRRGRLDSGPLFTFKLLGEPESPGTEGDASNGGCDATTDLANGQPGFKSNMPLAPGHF
The test can be described thus: Confocal microscopy, 3CAM α1b-adrenoceptor-GFP. In kind it is cell-based. The following applies: 1 μM for 24h. On the procedure:
(§1) Cells expressing either the 3CAM (10A) or wild type (10B) hamster α1b-adrenoceptor grown on glass cover slips were treated with vehicle (a), phentolamine (b), WB4101 (c) or HV723 (d) (all at 1 μM) for 24h. The cells were then visualised on a confocal microscope.
(§2) The images were manipulated with Zeiss LSM or MetaMorph software. Two different protocols for preparation of cells were used. When examining the time course of internalisation and recycling live cells were used. Cells were grown on glass coverslips and mounted on the imaging chamber. Cells were maintained in KRH buffer (see below) and temperature was maintained at 37° C. In other studies fixed cells were used. Cells on glass coverslips were washed with PBS and fixed for 20 min at room temperature using 4% paraformaldehyde in PBS/5% sucrose pH 7.2. After one wash with PBS coverslips were mounted on microscope slides with 40% glycerol in PBS.
(§3) In the first step the coding sequence of a modified form of GFP was modified by polymerase chain reaction (PCR) amplification. Using the amino-terminal primer 5′-[…]-3 the initiating Met of GFP was removed and both a Kpn I restriction site (underlined) and a 2-amino acid spacer (Gly-Asn) were introduced. Using the carboxy-terminal primer 5-[…]-3′ an Xba I restriction site (underlined) was introduced downstream of the stop codon of GFP. The amplified fragment of GFP digested with Kpn I and Xba I was subcloned into similarly digested pcDNA3 expression vector (Invitrogen). To obtain the α1B-adrenoceptor-GFP fusion proteins, the coding sequence of each form of the α1B-adrenoceptor was amplified by PCR. Using the amino-terminal primer 5′-[…]-3′, a Kpn I restriction site (underlined) was introduced upstream of the initiator Met. […] Finally, the GFP construct in pcDNA3 was digested with Kpn I and ligated together with the PCR product of the α1B-adrenoceptor amplification also digested with Kpn I. The open reading frames so produced represent the coding sequence of either the wild type or 3CAM α1B-adrenoceptor-GFPs. […]

The target of test [2] is T2, CAM α1b-adrenoceptor/GFP fusion protein (Mesocricetus auratus, UniProt P18841, A293L/K290H/R288K).
T2 construct: expressed in transfected cells
T2 sequence (P18841 1-515 R288K/K290H/A293L): T1 sequence (P18841 1-515 R288K/K290H/A293L)
The test can be described thus: Plate fluorimetry, CAM α1b-adrenoceptor/GFP in HEK 293 cells. As to conditions: 22 hrs treatment, range in brackets, read-out: EC50 of up-regulation of fluorescence of CAM α1b-adrenoceptor/GFP. In kind it is cell-based, hamster. The protocol:
These cell lines were used to investigate ligand up-regulation of the CAM α1b-adrenoceptor/GFP fusion protein. Fusion protein upregulation was measured according to a gain in total cellular fluorescence in a plate based fluorimeter.
For experiments cells were seeded into black 96 well view plates (Costar) on the day before assay. […] Cells were incubated at 37° C. for 22 hours. After incubation fluorescence was detected using a Tecan Spectrafluor plus fluorimeter. To control for plate and media autofluorescence results were calculated by subtracting a blank plate reading from the fluorescence values obtained in drug treated cells.
The time course of ligand up-regulation of the CAM α1b-adrenoceptor/GFP fusion protein was also investigated. In this study cells were seeded and treated with drug as previously described but fluorescence in the blank plate and the cell plates were read at various time points between 2–31 hours after drug addition.

In test [3] the target is T3, wild type hamster α1b-adrenoceptor/GFP fusion construct (Mesocricetus auratus, UniProt P18841).
T3 construct: expressed in transfected cells
T3 sequence (P18841 1-515): T1 sequence (P18841 1-515 R288K/K290H/A293L) with K288R, H290K, L293A
The test can be described thus: Confocal microscopy, wild type α1b-adrenoceptor-GFP. In kind it is cell-based. As to conditions: 1 μM for 24h. On the procedure:
as §1, §2, §3

For test [4], the target named is T4, PAR1mut/GFP fusion protein (Homo sapiens, UniProt P25116, A405G/G401A/L403A/M404G/N398G/Q402G/S399A/S400G/S406A/Y397A).
T4 construct: expressed in transfected cells
T4 sequence (P25116 22-425 Y397A/N398G/S399A/S400G/G401A/Q402G/L403A/M404G/A405G/S406A): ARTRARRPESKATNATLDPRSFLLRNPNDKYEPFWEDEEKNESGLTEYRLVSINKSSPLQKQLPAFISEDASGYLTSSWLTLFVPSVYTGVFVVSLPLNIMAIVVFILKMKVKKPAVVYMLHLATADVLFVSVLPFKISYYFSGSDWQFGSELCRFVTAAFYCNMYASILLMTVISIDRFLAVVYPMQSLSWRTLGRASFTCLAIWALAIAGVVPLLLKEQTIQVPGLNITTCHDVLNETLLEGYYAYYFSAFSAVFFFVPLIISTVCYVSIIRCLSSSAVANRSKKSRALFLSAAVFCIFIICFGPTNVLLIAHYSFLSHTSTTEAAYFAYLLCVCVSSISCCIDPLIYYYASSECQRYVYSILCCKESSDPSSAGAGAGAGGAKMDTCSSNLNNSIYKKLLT
The test can be described thus: Agonist mediated down-regulation of PAR1mut/GFP in plate fluorimeter. It is filed as cell-based. The following applies: 4 hours incubation. On the procedure:
PAR1 receptor internalisation occurs through two mechanisms. […] This […] in the wild type receptor with the sequence […] (Shapiro and Coughlin, 1998). […] Cells were seeded into black 96 well view plates (Costar) the day before the experiment. The growth media was replaced with phenol red free DMEM/F12 (1:1) media containing 2 mM L-glutamine and either TRAP (10 μM-1 nM) or thrombin (1-0.0001 units/ml). The media also contained 0.5 mM Brilliant Black dye to absorb any media associated autofluorescence. […] To control for plate and media autofluorescence results were calculated by subtracting a blank plate reading from the fluorescence values obtained in drug treated cells.

The target in a further test is T5, CAM β2-adrenoceptor-GFP (Homo sapiens, UniProt P07550, H269K/K267R/L266S/L272A).
T5 construct: GFP (modified form, Zernicka-Goetz et al. 1997); expressed in transfected cells
The test can be described thus: Confocal microscopy of CAM β2-adrenoceptor-GFP in HEK293 cells. In kind it is cell-based. The following applies: 24h, 10^−5 M.

Test [5] deals with T6, wild-type α1b-adrenoceptor (Mesocricetus auratus, UniProt P18841).
T6 construct: expressed in transfected cells
T6 sequence (P18841 1-515): T1 sequence (P18841 1-515 R288K/K290H/A293L) with K288R, H290K, L293A
The test can be described thus: [3H]prazosin specific binding to membranes after ligand treatment, wild type. In kind it is cell-based, hamster. As to conditions: FIG. 10C; [3H]prazosin 2 nM. On the procedure: (§4) Equivalent studies were performed on plates of cells which were then washed and harvested. Membranes were prepared and the specific binding capacity of a single concentration (2 nM) of [^3H]prazosin was then assessed (FIG. 10C).
(§5) HEK293 cells stably expressing each of the α1B-adrenoceptor-GFP fusion proteins were grown to confluence on 6 cm dishes. Prior to harvesting, cells were washed twice with 4 ml of ice-cold TE buffer (10 mM Tris, 0.1 mM EDTA pH 7.5) and then scraped into 1 ml of the same buffer. […] The suspension was centrifuged at 16000×g for 15 min and the resulting pellets resuspended in ice-cold TE buffer to final protein concentrations of 0.035–0.16 mg/ml.

Another test addresses T7, 3CAM α1b-adrenoceptor (Mesocricetus auratus, UniProt P18841, A293L/K290H/R288K).
T7 construct: expressed in transfected cells
T7 sequence (P18841 1-515 R288K/K290H/A293L): T1 sequence (P18841 1-515 R288K/K290H/A293L)
The test is described as follows: [3H]prazosin specific binding to membranes after ligand treatment, 3CAM. In kind it is cell-based, hamster. As to conditions: FIG. 10C; [3H]prazosin 2 nM. On the procedure:
as §4, §5

Numbering of substitutions follows the chain as printed.

Consider `Cc1ccc(N(CC2=NCCN2)c2cccc(O)c2)cc1` [phentolamine], for which, in test [1], the “upregulation of fluorescence of 3CAM α1b-adrenoceptor/GFP (confocal)” value is “Upregulation of the 3CAM”. Besides, in test [2], the EC50 turned out to be 170 nM. For the same molecule, in test [3], the “upregulation of wild type α1b-adrenoceptor/GFP (confocal)” value is listed as “not wild type”.
As for thrombin, the “maximum decrease (loss) in fluorescence of PAR1 mut/GFP construct” value in test [4] is on record as “about 5%”.
As to `COC(=O)[C@@H]1[C@H]2C[C@H]3c4[nH]c5ccccc5c4CCN3C[C@@H]2CC[C@@H]1O` [yohimbine], the “upregulation of fluorescence of CAM β2-adrenoceptor-GFP (confocal)” value at CAM β2-adrenoceptor-GFP was “not recorded”.
With `COc1cc2nc(N3CCN(C(=O)c4ccco4)CC3)nc(N)c2cc1OC` [prazosin], the “effect on wild-type α1b-adrenoceptor level ([3H]prazosin specific binding)” value in test [5] is listed as “no effect”. Also, the “effect on 3CAM α1b-adrenoceptor level ([3H]prazosin specific binding)” value at 3CAM α1b-adrenoceptor was “upregulation”. Further, the “upregulation of fluorescence of CAM β2-adrenoceptor-GFP (confocal)” value on CAM β2-adrenoceptor-GFP is recorded as “not recorded”.
Regarding `CCCc1ccccc1OCC(O)CNC(C)C` (stereo not drawn) [dihydroalprenolol], the “upregulation of fluorescence of CAM β2-adrenoceptor-GFP (confocal)” value on CAM β2-adrenoceptor-GFP was “Upregulation of fluoresence”.
Regarding `COc1cccc(OC)c1OCCNCC1COc2ccccc2O1` (stereo not drawn) [WB 4101], the “upregulation of fluorescence of 3CAM α1b-adrenoceptor/GFP (confocal)” value in test [1] was “Upregulation of the 3CAM”. Also, in test [2], the EC50 came to 676 nM. The “upregulation of wild type α1b-adrenoceptor/GFP (confocal)” value in test [3] is recorded as “not wild type”.
For `CCC(C#N)(CCCNCCOc1ccccc1OC)c1cc(OC)c(OC)c(OC)c1` (stereo not drawn) [HV 723], in that order: “Upregulation of the 3CAM”, 417 nM and “not wild type”.

Values taken from US7101677B1, “Receptor assay” (University Court of the University of Glasgow, priority 1999, dated 2006).
